test system: wildtype Wnt signaling cascade; experiment: HEK293 TOP Assay (Super TopFlash luciferase reporter, Wnt-3a stimulated); format: cell-based; details: Homo sapiens, HEK293, 16 h, HEK293 TOP reporter cell line, Wnt-3a at EC50, 16 hours incubation, compound dilution series 50 μM to 15 nM
Method: In order to discover and characterize small molecules which inhibit the wildtype Wnt pathway, a cellular reporter assay was employed. The corresponding assay cell was generated by transfection of the mammalian cell line HEK293 (ATCC, #CRL-1573) with the Super TopFlash vector (Morin, Science 275, 1997, 1787-1790; Molenaar et al., Cell 86 (3), 1996, 391-399). The HEK293 cell line is cultivated at 37° C. and 5% CO2 in DMEM (Life Technologies, #41965-039), supplemented with 2 mM glutamine, 20 mM HEPES, 1.4 mM pyruvate, 0.15% Na-bicarbonate and 10% foetal bovine serum (GIBCO, #10270). Stable transfectants were generated by selection with 300 μg/ml Hygromycin.
In preparation of the assay, the two cell lines were plated 24 hrs before beginning the test at 10000 cells per well in a 384 micro titre plate (MTP) in 30 μl growth medium. […] The recombinant human Wnt-3a was thereby applied between 2500 and 5 ng/ml in two-fold dilution steps.
Selective inhibitory activity for small molecules on the wildtype Wnt pathway was determined after parallel incubation of both (TOP and FOP) HEK293 reporter cell lines with a compound dilution series from 50 μM to 15 nM in steps of 3.16-fold dilutions in CAFTY buffer (130 mM sodium chloride, 5 mM potassium chloride, 20 mM HEPES, 1 mM magnesium chloride, 5 mM sodium bicarbonate, pH 7.4) containing 2 mM Ca^2+ and 0.01% BSA.
The compounds were thereby serially prediluted in 100% DMSO and thereafter 50 fold into the CAFTY compound dilution buffer (described above).

| SMILES | IC50 [µM] |
| --- | --- |
| CNC(=O)c1[nH]cnc1C(=O)Nc1ccc(NC(=O)c2ccc(F)cc2Cl)c(OC(F)(F)F)c1 [Example 291, N^4-{4-[(2-chloro-4-fluorobenzoyl)amino]-3-(trifluoromethoxy)phenyl}-N^5-methyl-1H-imidazole-4,5-dicarboxamide] | 14.3 |
| O=C(Nc1ccc(NC(=O)c2nc[nH]c2C(=O)NCC(F)(F)F)cc1OC(F)(F)F)c1ccc(F)cc1Cl [Example 292, N^4-{4-[(2-chloro-4-fluorobenzoyl)amino]-3-(trifluoromethoxy)phenyl}-N^5-(2,2,2-trifluoroethyl)-1H-imidazole-4,5-dicarboxamide] | 11 |
| CC1CN(CCNC(=O)c2[nH]cnc2C(=O)Nc2ccc(NC(=O)c3ccc(F)cc3Cl)cc2)CC(C)O1 (stereo not shown) [Example 301, N^4-{4-[(2-4-fluorochlorobenzoyl)amino]phenyl}-N^5-[2-(2,6-dimethylmorpholin-4-yl)ethyl]-1H-imidazole-4,5-dicarboxamide] | 1.2 |
| CNC(=O)c1nc[nH]c1C(=O)Nc1ccc(NC(=O)c2ccc(Cl)cc2)cc1 [Example 306, N^5-{4-[(4-chlorobenzoyl)amino]phenyl}-N^4-methyl-1H-imidazole-4,5-dicarboxamide] | 3.15 |
| CNC(=O)c1nc[nH]c1C(=O)Nc1ccc(NC(=O)c2ccc(Cl)c(Cl)c2)cc1 [Example 308, N^5-{4-[(3,4-dichlorobenzoyl)amino]phenyl}-N^4-methyl-1H-imidazole-4,5-dicarboxamide] | 3.35 |
| CNC(=O)c1nc[nH]c1C(=O)Nc1ccc(NC(=O)c2cccc(C#N)c2)cc1 [Example 311, N^5-{4-[(3-cyanobenzoyl)amino]phenyl}-N^4-methyl-1H-imidazole-4,5-dicarboxamide] | 50 |
| CNC(=O)c1nc[nH]c1C(=O)Nc1ccc(NC(=O)c2ccoc2)cc1 [Example 312, N^5-{4-[(furan-3-ylcarbonyl)amino]phenyl}-N^4-methyl-1H-imidazole-4,5-dicarboxamide] | 50 |
| CNC(=O)c1nc[nH]c1C(=O)Nc1ccc(NC(=O)c2ccc(C(F)(F)F)cc2)cc1 [Example 316, N^4-methyl-N^5-(4-{[4-(trifluoromethyl)benzoyl]amino}phenyl)-1H-imidazole-4,5-dicarboxamide] | 13.5 |
| CNC(=O)c1nc[nH]c1C(=O)Nc1ccc(NC(=O)c2cc(F)ccc2F)cc1 [Example 318, N^5-{4-[(2,5-difluorobenzoyl)amino]phenyl}-N^4-methyl-1H-imidazole-4,5-dicarboxamide] | 1.3 |
| CNC(=O)c1nc[nH]c1C(=O)Nc1ccc(NC(=O)c2ccc(F)c(F)c2)cc1 [Example 320, N^5-{4-[(3,4-difluorobenzoyl)amino]phenyl}-N^4-methyl-1H-imidazole-4,5-dicarboxamide] | 4.8 |
| CNC(=O)c1nc[nH]c1C(=O)Nc1ccc(NC(=O)c2cc(F)cc(F)c2)cc1 [Example 321, N^5-{4-[(3,5-difluorobenzoyl)amino]phenyl}-N^4-methyl-1H-imidazole-4,5-dicarboxamide] | 50 |
| CNC(=O)c1nc[nH]c1C(=O)Nc1ccc(NC(=O)c2c(F)ccc(F)c2F)cc1 [Example 323, N^4-methyl-N^5-{4-[(2,3,6-trifluorobenzoyl)amino]phenyl}-1H-imidazole-4,5-dicarboxamide] | 1.45 |
| CNC(=O)c1nc[nH]c1C(=O)Nc1ccc(NC(=O)c2ccc(C)c(F)c2)cc1 [Example 328, N^5-{4-[(3-fluoro-4-methylbenzoyl)amino]phenyl}-N^4-methyl-1H-imidazole-4,5-dicarboxamide] | 5.25 |
| CNC(=O)c1nc[nH]c1C(=O)Nc1ccc(NC(=O)c2ccco2)cc1 [Example 329, N^5-{4-[(furan-2-ylcarbonyl)amino]phenyl}-N^4-methyl-1H-imidazole-4,5-dicarboxamide] | 50 |
| CNC(=O)c1nc[nH]c1C(=O)Nc1ccc(NC(=O)c2cc(C)cc(C)c2)cc1 [Example 335, N^5-{4-[(3,5-dimethylbenzoyl)amino]phenyl}-N^4-methyl-1H-imidazole-4,5-dicarboxamide] | 21.5 |
| CNC(=O)c1nc[nH]c1C(=O)Nc1ccc(NC(=O)c2cccc(C)c2)cc1 [Example 336, N^4-methyl-N^5-{4-[(3-methylbenzoyl)amino]phenyl}-1H-imidazole-4,5-dicarboxamide] | 11 |
| CNC(=O)c1nc[nH]c1C(=O)Nc1ccc(NC(=O)c2ccc(C)cc2)cc1 [Example 337, N^4-methyl-N^5-{4-[(4-methylbenzoyl)amino]phenyl}-1H-imidazole-4,5-dicarboxamide] | 23.5 |
| CNC(=O)c1nc[nH]c1C(=O)Nc1ccc(NC(=O)c2ccccc2N(C)C)cc1 [Example 339, N^5-(4-{[2-(dimethylamino)benzoyl]amino}phenyl)-N^4-methyl-1H-imidazole-4,5-dicarboxamide] | 45.5 |
| CNC(=O)c1nc[nH]c1C(=O)Nc1ccc(NC(=O)c2cc(F)cc(F)c2F)cc1 [Example 347, N^4-methyl-N^5-{4-[(2,3,5-trifluorobenzoyl)amino]phenyl}-1H-imidazole-4,5-dicarboxamide] | 34.5 |
| CNC(=O)c1nc[nH]c1C(=O)Nc1ccc(NC(=O)c2ccc(OC)c(OC)c2Cl)cc1 [Example 348, N^5-{4-[(2-chloro-3,4-dimethoxybenzoyl)amino]phenyl}-N^4-methyl-1H-imidazole-4,5-dicarboxamide] | 7.05 |
| CNC(=O)c1nc[nH]c1C(=O)Nc1ccc(NC(=O)c2ccc(C#N)c(F)c2)cc1 [Example 350, N^5-{4-[(4-cyano-3-fluorobenzoyl)amino]phenyl}-N^4-methyl-1H-imidazole-4,5-dicarboxamide] | 6.5 |
| CNC(=O)c1nc[nH]c1C(=O)Nc1ccc(NC(=O)c2ccnc(Cl)c2)cc1 [Example 351, N^5-(4-{[(2-chloropyridin-4-yl)carbonyl]amino}phenyl)-N^4-methyl-1H-imidazole-4,5-dicarboxamide] | 12.5 |
| CNC(=O)c1nc[nH]c1C(=O)Nc1ccc(NC(=O)c2ccc(OC)c(C)c2)cc1 [Example 355, N^5-{4-[(4-methoxy-3-methylbenzoyl)amino]phenyl}-N^4-methyl-1H-imidazole-4,5-dicarboxamide] | 25 |
| CNC(=O)c1nc[nH]c1C(=O)Nc1ccc(NC(=O)c2ccc(C)cn2)cc1 [Example 357, N^4-methyl-N^5-(4-{[(5-methylpyridin-2-yl)carbonyl]amino}phenyl)-1H-imidazole-4,5-dicarboxamide] | 11.2 |

The remaining lines, values ahead:

| IC50 [µM] | SMILES |
| --- | --- |
| 11.4 | CNC(=O)c1nc[nH]c1C(=O)Nc1ccc(NC(=O)c2ccc(OC)cc2)cc1 [Example 304, N^5-{4-[(4-methoxybenzoyl)amino]phenyl}-N^4-methyl-1H-imidazole-4,5-dicarboxamide] |
| 31.5 | CNC(=O)c1nc[nH]c1C(=O)Nc1ccc(NC(=O)c2cccc(OC)c2)cc1 [Example 305, N^5-{4-[(3-methoxybenzoyl)amino]phenyl}-N^4-methyl-1H-imidazole-4,5-dicarboxamide] |
| 10.5 | CNC(=O)c1nc[nH]c1C(=O)Nc1ccc(NC(=O)c2ccc(Cl)cc2OC)cc1 [Example 310, N^5-{4-[(4-chloro-2-methoxybenzoyl)amino]phenyl}-N^4-methyl-1H-imidazole-4,5-dicarboxamide] |
| 50 | CNC(=O)c1nc[nH]c1C(=O)Nc1ccc(NC(=O)c2cccc(N(C)C)c2)cc1 [Example 317, N^5-(4-{[3-(dimethylamino)benzoyl]amino}phenyl)-N^4-methyl-1H-imidazole-4,5-dicarboxamide] |
| 3.2 | CNC(=O)c1nc[nH]c1C(=O)Nc1ccc(NC(=O)c2cccc(F)c2C)cc1 [Example 324, N^5-{4-[(3-fluoro-2-methylbenzoyl)amino]phenyl}-N^4-methyl-1H-imidazole-4,5-dicarboxamide] |
| 8.6 | CNC(=O)c1nc[nH]c1C(=O)Nc1ccc(NC(=O)c2cccc(F)c2)cc1 [Example 331, N^5-{4-[(3-fluorobenzoyl)amino]phenyl}-N^4-methyl-1H-imidazole-4,5-dicarboxamide] |
| 9.65 | CNC(=O)c1nc[nH]c1C(=O)Nc1ccc(NC(=O)c2ccn(C)n2)cc1 [Example 332, N^4-methyl-N^5-(4-{[(1-methyl-1H-pyrazol-3-yl)carbonyl]amino}phenyl)-1H-imidazole-4,5-dicarboxamide] |
| 2.8 | CNC(=O)c1nc[nH]c1C(=O)Nc1ccc(NC(=O)c2ccc(OC)c(F)c2)cc1 [Example 338, N^5-{4-[(3-fluoro-4-methoxybenzoyl)amino]phenyl}-N^4-methyl-1H-imidazole-4,5-dicarboxamide] |
| 50 | CNC(=O)c1nc[nH]c1C(=O)Nc1ccc(NC(=O)c2cncs2)cc1 [Example 345, N^4-methyl-N^5-{4-[(1,3-thiazol-5-ylcarbonyl)amino]phenyl}-1H-imidazole-4,5-dicarboxamide] |
| 50 | CNC(=O)c1nc[nH]c1C(=O)Nc1ccc(NC(=O)c2ccno2)cc1 [Example 354, N^4-methyl-N^5-{4-[(1,2-oxazol-5-ylcarbonyl)amino]phenyl}-1H-imidazole-4,5-dicarboxamide] |

From US9884063B2, “Amido-substituted azole compounds” (Bayer Pharma Aktiengesellschaft, priority 2014, dated 2018)
